Assay results taken from US5364615A (priority 1992, dated 1994).
Several values for one entry are separate records, joined by “and”; a condition that tells them apart may be missing. Equal entries are not always repeated. Entries after “also recorded” stand apart in the source; their conditions may differ.

Key:
[1] = in vivo
[2] = clinical; conditions: human, serum, inhaled or intranasal, 300 mg
Method: Adult patients having or suspected of having AIDS, and who were hospitalized for a fiberoptic bronchoscopy to evaluate diffuse infiltrates on chest radiographs, were studied. The patients were divided into two groups. […] Two patients had received one dose and the other three doses.
Eighteen to 24 hours later both groups underwent fiberoptic bronchoscopy. After inspection of the airways, 3-5 aliquots (20 mL) of normal saline were injected and aspirated from the right middle lobe until at least 40 mL was recovered: C. […] Lavage fluid was centrifuged at 1,000×g for 10 min at 10° C. […] Briefly, proteins were precipitated with acetonitrile containing hexamidine as an internal standard. […] The lower limit of sensitivity of the assay was 2-3 ng/mL. Two sample t-test was used to compare groups: p values of <0.05 were regarded as significant.

[3] = Serum pentamidine concentrations (Example 3); type: in vivo, human; conditions: aerosol
[4] = Aerosol particle size of pentamidine; type: physicochemical; conditions: for particle size (MMAD): Respirgard II
From the text: A compressed oxygen (5-7 L/min at 345 kPa, 50 psi) powered nebulizer produces the aerosol and one-way valves provide for entrainment of room air in patients whose minute ventilation is high, act as a baffle to decrease particle size, and direct expired air to a filter which removes the remaining particles of drug thereby preventing environmental contamination.
Particles were sized with a 7 stage Mercer cascade impactor (Intox Products, Albuquerque, N. Mex.). The gas supply was 6 L/min, the sample stream was not dried, and the impactor flow rates were 0.5 L/min. […] Results from the average of three determinations at each location were expressed as mass median aerodynamic diameter ±geometric standard deviation (MMAD±GSD). Raabe, J Aerosol Sci (1971) Z:289-303.

[5] = Side effects (Example 6); type: in vivo, human
[6] = inhaled pentamidine; cited from earlier work
[7] = tested on: Pneumocystis carinii; assay: Post-exposure prophylaxis of PCP (Example 5); type: in vivo, human; conditions: for Percent Alive & Free of Relapse: 300 mg once per month
From the text: Within 30 days of initiation of prophylaxis, ten patients were omitted due to treatment (9) or relapse (1). Of the 93 patients, 48 had had at least one previous episode of PCP. Two-thirds of the patients were taking AZT at the onset and throughout the duration of the post-exposure prophylaxis. The median and maximum duration of treatment at the time of analysis was 3.1 and 5.2 months.

[8] = Adverse reactions and toxicity during PCP therapy (Example 3); conditions: for FEV1/FVC ratio: mean±1 SD
[9] = type: in vivo, human
From the text: Five patients who developed PCP within 28 days were not evaluated. One hundred (66%) of the patients were concurrently receiving AZT, and 42 (28%) had experienced one prior episode of PCP.

[10] = human, in vivo
[11] = tested on: Pneumocystis carinii; assay: Randomized clinical trial of PCP prophylaxis (Example 8); type: in vivo, human
[12] = distal to the nebulizer (point A)
[13] = group b, 150 mg every two weeks
[14] = group c, 300 mg every four weeks
[15] = all strata, eligible, PCP within 60 days, 30 mg
[16] = all strata, eligible, PCP within 60 days, 150 mg
[17] = all strata, eligible, PCP within 60 days, 300 mg, p .004 (30 vs 300 mg)
[18] = all strata, eligible, confirmed PCP within 60 days, 30 mg
[19] = all strata, eligible, confirmed PCP within 60 days, 150 mg
[20] = all strata, eligible, confirmed PCP within 60 days, 300 mg, p .0008 (30 vs 300 mg)
[21] = all strata, intention to treat, all PCP, 30 mg
[22] = all strata, intention to treat, all PCP, 150 mg
[23] = all strata, intention to treat, all PCP, 300 mg, p .02 (30 vs 300 mg)
[24] = prior PCP strata, eligible, PCP within 60 days, 30 mg
[25] = prior PCP strata, eligible, PCP within 60 days, 150 mg
[26] = prior PCP strata, eligible, PCP within 60 days, 300 mg, p .006 (30 vs 300 mg)
[27] = prior PCP strata, eligible, confirmed PCP within 60 days, 30 mg
[28] = prior PCP strata, eligible, confirmed PCP within 60 days, 150 mg
[29] = prior PCP strata, eligible, confirmed PCP within 60 days, 300 mg, p .002 (30 vs 300 mg)
[30] = prior PCP strata, intention to treat, all PCP, 30 mg
[31] = prior PCP strata, intention to treat, all PCP, 150 mg
[32] = prior PCP strata, intention to treat, all PCP, 300 mg, p .02 (30 vs 300 mg)

In the case of N=C(N)c1ccc(OCCCCCOc2ccc(C(=N)N)cc2)cc1 [pentamidine, p,p'-(pentamethylenedioxy)dibenzamidine], the hypotension or dysglycemia [1] is reported as “no episodes of hypotension or dysglycemia”, the inhalation-associated cough [1] is reported as “Eight of thirteen patients (four of whom also experienced bronchospasm) had mild inhalation-associated cough” and the reversible bronchospasm [1] is reported as “occurred in five patients”. The concentration at 0.5 h [2] was 0.013 µg/mL, the serum pentamidine concentration ([3]; 2 patients at end of therapy) was 22 ng/mL and 32 ng/mL and the serum pentamidine concentration ([3]; 12/14 patients) was “less than 10 ng/mL”. The “particle size (MMAD ± GSD)” value ([4]; Example 3, nebulizer of Example 2, 600 mg in 6 mL) was 1.42±1.88 μm, the “mass of particles larger than 4 μm” value ([4]; at the mouthpiece (point B)) was “less than 5%” and the “particle size (MMAD)” value ([4]; at the mouthpiece (point B)) was 1.42 μm. The “mass of particles larger than 4 μm” value [4, 12] was “greater than 20%”, the “particle size (MMAD)” value [4, 12] was 2.38 μm and the “pentamidine distal to the exhalation filter” value ([4]; point C) was “No pentamidine was found distal to the exhalation filter”. For the same compound, the “withdrawals due to toxicity” value ([5]; all groups) was “no withdrawals due to toxicity”, the Cough ([5]; group a, 30 mg every two weeks) was 25% and the “Metallic Taste” value ([5]; group a, 30 mg every two weeks) was 11%. The Wheezing ([5]; group a, 30 mg every two weeks) was 10%, the Cough [5, 13] was 34% and the “Metallic Taste” value [5, 13] was 16%. For the same compound, the Wheezing [5, 13] was 14%, the Cough [5, 14] was 34% and the “Metallic Taste” value [5, 14] was 20%. For the same compound, the Wheezing [5, 14] was 14%, the microscopic airway changes [6] was “no microscopic airway changes have been noted” and the “reduction in the incidence of PCP” value ([7]; 300 mg by inhalation once monthly, based on historical controls) was 5 fold. For the same compound, the “Percent Alive & Free of Relapse” value ([7]; 0.0 months) was 100.0%, the “Percent Alive & Free of Relapse” value ([7]; 2.3 months) was 98.57% and the “Percent Alive & Free of Relapse” value ([7]; 2.5 months) was 97.12%. The “Percent Alive & Free of Relapse” value ([7]; 2.9 months) was 95.53%, the “Percent Alive & Free of Relapse” value ([7]; 3.0 months) was 93.85% and the “Percent Alive & Free of Relapse” value ([7]; 3.1 months) was 92.08%. The “Percent Alive & Free of Relapse” value ([7]; 3.7 months) was 89.78%, the “Percent Alive & Free of Relapse” value ([7]; 5.2 months) was 79.81% and the delay of relapse ([7]; single prior episode of PCP) was “at least 5 months”. For the same compound, the “observed PCP cases” value ([7]; single prior episode, vs 10 based on 132 historical controls, p<0.01) was 3, the FEV1/FVC ratio ([8]; end of therapy) was 79.9±15.8% and the “FEV1/FVC ratio, single treatment” value ([8]; first 4 patients) was “no different before and after a single treatment”. For the same compound, the “bronchospasm / airway obstruction” value ([8]; in vivo) was “Neither clinical nor spirometric evidence of airway obstruction occurred; also recorded: Clinical bronchospasm was not seen”, the FEV1/FVC ratio ([8]; initial testing) was 76.1±12.2% and the “Toxicity Req Change of Therapy, %” value ([8]; n = 15) was 0%. The “deaths associated with PCP” value ([9]; 3 of 146) was 2%, the “deaths due to other causes” value ([9]; 9 of 146) was 6% and the patients died ([9]; twelve of 146 evaluable) was 8%. For the same compound, the “frequent adverse effect observed clinically” value [10] was “transient airway irritation”, the “Completed without Endpoint” value ([11]; 30 mg every two weeks) was 26 and the “Died, Due to PCP” value ([11]; 30 mg every two weeks) was 5. The “Died, Not due to PCP” value ([11]; 30 mg every two weeks) was 51, the “Extrapulmonary Pneumocystis” value ([11]; 30 mg every two weeks) was 0 and the “PCP, Confirmed” value ([11]; 30 mg every two weeks) was 32. For the same compound, the “PCP, Unconfirmed” value ([11]; 30 mg every two weeks) was 9, the “Completed without Endpoint” value ([11]; 150 mg every two weeks) was 38 and the “Died, Due to PCP” value ([11]; 150 mg every two weeks) was 6. For the same compound, the “Died, Not due to PCP” value ([11]; 150 mg every two weeks) was 47, the “Extrapulmonary Pneumocystis” value ([11]; 150 mg every two weeks) was 1 and the “PCP, Confirmed” value ([11]; 150 mg every two weeks) was 28. The “PCP, Unconfirmed” value ([11]; 150 mg every two weeks) was 4, the “Completed without Endpoint” value ([11]; 300 mg every four weeks) was 42 and the “Died, Due to PCP” value ([11]; 300 mg every four weeks) was 5. For the same compound, the “Died, Not due to PCP” value ([11]; 300 mg every four weeks) was 46, the “Extrapulmonary Pneumocystis” value ([11]; 300 mg every four weeks) was 0 and the “PCP, Confirmed” value ([11]; 300 mg every four weeks) was 16. The “PCP, Unconfirmed” value ([11]; 300 mg every four weeks) was 12, the “case fatality rate from first acute PCP episode” value ([11]; 16 of 101 PCP episodes) was 15.8% and the “share of all deaths due to PCP” value ([11]; 19 of 160) was 11.9%. For the same compound, the “all cause mortality between treatment arms” value ([11]; 30, 150, 300 mg) was “did not significantly differ between the three treatment arms”, the “time to PCP occurrence, dose comparison” value ([11]; Kaplan-Meier, 300 mg every 4 weeks vs 30 mg every 2 weeks, 150 mg vs 30 mg) was 300 mg of aerosolized pentamidine given every 4 weeks was consistently superior to 30 mg of aerosolized pentamidine given every 2 weeks and The 150 mg arm was superior to the 30 mg arm but less so than the 300 mg arm and the all cause mortality ([11]; Kaposi's sarcoma stratum) was 36%. For the same compound, the “deaths due to PCP” value ([11]; all doses) was “Nineteen deaths occurred due to PCP”, the deaths ([11]; all doses, 408 participants) was 160 and the PCP episodes ([11]; all doses, KS stratum) was 8. The PCP episodes ([11]; all doses, Other HIV stratum) was 15, the PCP episodes ([11]; all doses, total and prior PCP stratum) was “One hundred-one PCP episodes; also recorded: Seventy-eight occurred in the prior PCP stratum” and the “Relative Hazard of PCP: Cox regression” value ([11]; all strata, confirmed PCP on study drug, 30 vs 300) was 3.9 and 3.86. For the same compound, the “Relative Hazard of PCP: Cox regression” value ([11]; all strata, confirmed PCP on study drug, 30 vs. 150) was 1.7 and 1.71, the “No PCP (participants)” value [11, 15] was 89 and the “PCP (participants)” value [11, 15] was 28. The “No PCP (participants)” value [11, 16] was 102, the “PCP (participants)” value [11, 16] was 18 and the “No PCP (participants)” value [11, 17] was 113. The “PCP (participants)” value [11, 17] was 16, the “No PCP (participants)” value [11, 18] was 95 and the “PCP (participants)” value [11, 18] was 22. The “No PCP (participants)” value [11, 19] was 104, the “PCP (participants)” value [11, 19] was 16 and the “No PCP (participants)” value [11, 20] was 121. For the same compound, the “PCP (participants)” value [11, 20] was 8, the “No PCP (participants)” value [11, 21] was 94 and the “PCP (participants)” value [11, 21] was 41. For the same compound, the “No PCP (participants)” value [11, 22] was 102, the “PCP (participants)” value [11, 22] was 32 and the “No PCP (participants)” value [11, 23] was 111. The “PCP (participants)” value [11, 23] was 28, the “Relative Hazard of PCP: Cox regression” value ([11]; all strata, intention to treat, 30 vs 300) was 1.78 and the “Relative Hazard of PCP: Cox regression” value ([11]; all strata, intention to treat, 30 vs. 150) was 1.21. The “developed PCP” value ([11]; initial CD4 counts greater than 200, no prior PCP, two of 39) was 5.1%, the “developed PCP” value ([11]; initial CD4 counts less than 200, no prior PCP, 12 of 89) was 13% and the all cause mortality ([11]; other HIV stratum) was 13%. The “Relative Hazard of PCP: Cox regression” value ([11]; prior PCP strata, confirmed PCP on study drug, 30 vs 300) was 4.57, the “Relative Hazard of PCP: Cox regression” value ([11]; prior PCP strata, confirmed PCP on study drug, 30 vs. 150) was 2.10 and the “No PCP (participants)” value [11, 24] was 42. For the same compound, the “PCP (participants)” value [11, 24] was 25, the “No PCP (participants)” value [11, 25] was 51 and the “PCP (participants)” value [11, 25] was 16. The “No PCP (participants)” value [11, 26] was 60, the “PCP (participants)” value [11, 26] was 14 and the “No PCP (participants)” value [11, 27] was 47. For the same compound, the “PCP (participants)” value [11, 27] was 20, the “No PCP (participants)” value [11, 28] was 53 and the “PCP (participants)” value [11, 28] was 14. For the same compound, the “No PCP (participants)” value [11, 29] was 66, the “PCP (participants)” value [11, 29] was 8 and the “No PCP (participants)” value [11, 30] was 46. The “PCP (participants)” value [11, 30] was 33, the “No PCP (participants)” value [11, 31] was 54 and the “PCP (participants)” value [11, 31] was 24. The “No PCP (participants)” value [11, 32] was 59, the “PCP (participants)” value [11, 32] was 21 and the “Relative Hazard of PCP: Cox regression” value ([11]; prior PCP strata, intention to treat, 30 vs 300) was 2.11. For the same compound, the “Relative Hazard of PCP: Cox regression” value ([11]; prior PCP strata, intention to treat, 30 vs. 150) was 1.40, the all cause mortality ([11]; prior PCP stratum) was 53% and the “hazard of PCP by start of therapy” value ([11]; start within 3 months of prior PCP vs later, Cox model) was “less than half the hazard of PCP”. For the same compound, the “time to PCP relapse, median” value ([11]; starting prophylaxis within 3 months of prior PCP) was 240 days and the “time to PCP relapse, median” value ([11]; starting with a longer interval since prior episode) was 143 days.
